Experimental findings from ChEMBL document CHEMBL4433199, “First-in-class allosteric inhibitors of bacterial IMPDHs” (Eur J Med Chem, 2019) are described below.

Series [1] deals with T1, Inosine-5'-monophosphate dehydrogenase (Pseudomonas aeruginosa (strain ATCC 15692 / DSM 22644 / CIP 104116 / JCM14847 / LMG 12228 / 1C / PRS 101 / PAO1), UniProt Q9HXM5).
T1 sequence (Q9HXM5 whole entry): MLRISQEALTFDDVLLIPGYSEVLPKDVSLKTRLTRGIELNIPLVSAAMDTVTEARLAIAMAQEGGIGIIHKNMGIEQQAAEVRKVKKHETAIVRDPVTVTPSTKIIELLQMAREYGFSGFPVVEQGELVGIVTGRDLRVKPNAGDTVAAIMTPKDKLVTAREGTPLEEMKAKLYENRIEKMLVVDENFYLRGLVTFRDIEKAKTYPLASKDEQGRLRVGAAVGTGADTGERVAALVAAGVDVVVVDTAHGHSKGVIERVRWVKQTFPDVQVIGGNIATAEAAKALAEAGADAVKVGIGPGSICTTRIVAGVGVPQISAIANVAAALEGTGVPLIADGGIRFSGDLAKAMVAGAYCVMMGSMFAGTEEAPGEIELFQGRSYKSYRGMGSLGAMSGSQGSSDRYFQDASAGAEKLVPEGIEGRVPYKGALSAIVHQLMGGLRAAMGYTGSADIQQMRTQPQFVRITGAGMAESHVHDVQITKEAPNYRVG
As to the kind of experiment: Inhibition of Pseudomonas aeruginosa IMPDH using IMP as substrate in the presence of NAD+ incubated for 70 secs.

For series [2], the target named is T2, Inosine-5'-monophosphate dehydrogenase (Pseudomonas aeruginosa (strain ATCC 15692 / DSM 22644 / CIP 104116 / JCM14847 / LMG 12228 / 1C / PRS 101 / PAO1)) (UniProt Q9HXM5).
T2 sequence (whole entry): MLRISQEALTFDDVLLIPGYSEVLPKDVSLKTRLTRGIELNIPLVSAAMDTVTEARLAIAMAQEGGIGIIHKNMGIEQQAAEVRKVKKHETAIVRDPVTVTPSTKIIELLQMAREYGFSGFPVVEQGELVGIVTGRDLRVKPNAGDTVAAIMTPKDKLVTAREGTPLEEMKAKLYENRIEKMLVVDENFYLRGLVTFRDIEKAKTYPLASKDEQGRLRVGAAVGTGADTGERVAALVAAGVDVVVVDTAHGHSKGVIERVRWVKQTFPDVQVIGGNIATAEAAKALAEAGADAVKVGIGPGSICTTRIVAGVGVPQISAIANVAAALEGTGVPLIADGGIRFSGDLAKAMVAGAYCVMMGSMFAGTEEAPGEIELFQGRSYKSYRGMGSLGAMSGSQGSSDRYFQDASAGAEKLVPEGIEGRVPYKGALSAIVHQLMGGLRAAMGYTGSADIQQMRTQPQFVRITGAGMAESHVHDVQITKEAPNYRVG
As to the kind of experiment: Inhibition of Pseudomonas aeruginosa IMPDH at 48.2 uM using IMP as substrate in the presence of NAD+ incubated for 70 secs relative to control.

Series [3] concerns the target T2, Inosine-5'-monophosphate dehydrogenase (Pseudomonas aeruginosa (strain ATCC 15692 / DSM 22644 / CIP 104116 / JCM14847 / LMG 12228 / 1C / PRS 101 / PAO1)). Nature of the series: Inhibition of Pseudomonas aeruginosa IMPDH at 47.2 uM using IMP as substrate in the presence of NAD+ incubated for 70 secs relative to control.
For series [4] the target is unchanged. As to the kind of experiment: Competitive inhibition of Pseudomonas aeruginosa IMPDH using IMP as substrate and NAD+ in presence of varying ATP incubated for 70 secs.
For series [5] the target is unchanged. As to the kind of experiment: Inhibition of Pseudomonas aeruginosa IMPDH assessed as Km for IMP at 20 uM using IMP as substrate in presence of 2 mM NAD+ and 0.2 mM MgATP (reference value: 483 +/- 65 microM).
For series [6] the target is unchanged. Nature of the series: Inhibition of Pseudomonas aeruginosa IMPDH at 38.5 uM using IMP as substrate in the presence of NAD+ incubated for 70 secs relative to control.
Series [7] shares this target. As to the kind of experiment: Inhibition of Pseudomonas aeruginosa IMPDH at 40 uM using IMP as substrate in the presence of NAD+ incubated for 70 secs relative to control.
Series [8] has the same target. Nature of the series: Inhibition of Pseudomonas aeruginosa IMPDH at 43.4 uM using IMP as substrate in the presence of NAD+ incubated for 70 secs relative to control.
Series [9] shares this target. Nature of the series: Non-competitive inhibition of Pseudomonas aeruginosa IMPDH using IMP as substrate and NAD+ in presence of ATP incubated for 70 secs.
Series [10] shares this target. As to the kind of experiment: Inhibition of Pseudomonas aeruginosa IMPDH at 46.2 uM using IMP as substrate in the presence of NAD+ incubated for 70 secs relative to control.
Series [11] shares this target. Nature of the series: Inhibition of Pseudomonas aeruginosa IMPDH at 42.9 uM using IMP as substrate in the presence of NAD+ incubated for 70 secs relative to control.
Series [12] shares this target. As to the kind of experiment: Inhibition of Pseudomonas aeruginosa IMPDH at 57.4 uM using IMP as substrate in the presence of NAD+ incubated for 70 secs relative to control.
For series [13] the target is unchanged. Nature of the series: Inhibition of Pseudomonas aeruginosa IMPDH at 18.2 uM using IMP as substrate in the presence of NAD+ incubated for 70 secs relative to control.
Series [14] shares this target. Nature of the series: Inhibition of Pseudomonas aeruginosa IMPDH at 47.1 uM using IMP as substrate in the presence of NAD+ incubated for 70 secs relative to control.
Series [15] has the same target. As to the kind of experiment: Competitive inhibition of Pseudomonas aeruginosa IMPDH using IMP as substrate at varying levels and NAD+ in presence of ATP incubated for 70 secs.
The target is the same in series [16]. Nature of the series: Inhibition of Pseudomonas aeruginosa IMPDH at 35.1 uM using IMP as substrate in the presence of NAD+ incubated for 70 secs relative to control.
Compound in series [17]: N#CC1=C(N)Oc2[nH]c(=O)[nH]c(=O)c2C1c1ccc([N+](=O)[O-])cc1
Nature of the series: (§1) Inhibition of Pseudomonas aeruginosa IMPDH assessed as Vmax for IMP at 10 uM using IMP as substrate in presence of 2 mM NAD+ and 0.2 mM MgATP (reference value: 3.74 +/- 0.22 U/mg).

Compound in series [18]: CC(=O)Nc1ccc(C2C3=C(Nc4c2c(=O)[nH]c(=O)n4Cc2ccccc2)c2ccccc2C3=O)cc1
The description is as §1.

Compound in series [19]: CC(=O)N1CCOc2cc(S(=O)(=O)Nc3ccc(F)c(Cl)c3)ccc21
Nature of the series: (§2) Inhibition of Pseudomonas aeruginosa IMPDH assessed as Vmax for IMP at 20 uM using IMP as substrate in presence of 2 mM NAD+ and 0.2 mM MgATP (reference value: 3.74 +/- 0.22 U/mg).

Compound in series [20]: CCOc1ccc(-c2cc(C(=O)O)nc3[nH]nc(-c4ccc(Cl)cc4)c23)cc1
The series is described as §2.

Activity calls are given as the source filed them. No cut-off for these calls is given here.

Consider `Cc1ccc(-n2c(=O)[nH]cc(C(=O)Nc3ccc(C(C)C)cc3)c2=O)cc1C`, for which the IC50 result in series [1] was “Not Active”. For the same molecule, the inhibition in series [2] worked out at 75.4%.
On to `CC(=O)N1CCOc2cc(S(=O)(=O)Nc3ccc(F)c(Cl)c3)ccc21`, for which the inhibition in series [3] was 81.5%. Moreover, the inhibition entry in series [4] is “Active”. Moreover, the IC50 in series [1] (read-out: IC50) came out at 17.1 µM. For the same molecule, the K0.5 in series [5] was 747 µM.
Turning to `COc1ccc(CCNc2nc3cc(Cl)c(Cl)cc3nc2-n2nc(C)cc2C)cc1OC`, the inhibition was determined as 77.8% in series [6] and 20% in series [7].
As to `O=C(CCS(=O)(=O)c1ccc2c(c1)SCC(=O)N2)NCCCc1ccccc1`, the inhibition in series [8] was 76.7%. Further, in series [1] (read-out: IC50), the IC50 turned out to be 3.1 µM. The inhibition entry in series [9] was “Active”.
Turning to `CCOc1ccc(-c2cc(C(=O)O)nc3[nH]nc(-c4ccc(Cl)cc4)c23)cc1`, the inhibition in series [10] turned out to be 73%. The inhibition result in series [4] is “Active”. Moreover, in series [1] (read-out: IC50), the IC50 turned out to be 18.3 µM. In series [5], the K0.5 amounted to 616 µM.
For the molecule `CCc1oc2ccccc2c1C(=O)c1cc(Br)c(O)c(Br)c1` [BENZBROMARONE], the IC50 in series [1] (read-out: IC50) was 55 µM. The inhibition in [11] was determined as 73.3%.
For the molecule `N#CC1=C(N)Oc2[nH]c(=O)[nH]c(=O)c2C1c1ccc(Cl)cc1` (stereo not drawn), the inhibition result in series [4] was “Active”. Also, the inhibition in series [12] came to 89.3%. In addition, the IC50 in series [1] (read-out: IC50) was 4 µM.
In the case of `COc1cc(-c2ccc(/N=N/c3ccc4c(S(=O)(=O)O)cc(S(=O)(=O)O)c(N)c4c3O)c(OC)c2)ccc1/N=N/c1ccc2c(S(=O)(=O)O)cc(S(=O)(=O)O)c(N)c2c1O` [CHICAGO SKY BLUE SODIUM], the inhibition in series [13] came to 92.2%. In addition, the inhibition entry in series [4] is “Active”. The IC50 in series [1] (read-out: IC50) is 1.6 µM.
For the molecule `CC(=O)Nc1ccc(-c2cc(C(=O)O)nc3[nH]nc(-c4ccc(C)cc4)c23)cc1`, in series [4], the inhibition result was “Active”. The IC50 in series [1] (read-out: IC50) amounted to 23 µM. In addition, the inhibition in [14] amounted to 78.3%.
Regarding `Cc1cc2c(C(C)C)c(O)c(O)c(C=O)c2c(O)c1-c1c(C)cc2c(C(C)C)c(O)c(O)c(C=O)c2c1O` [GOSSYPOL], the inhibition entry in [15] was “Active”. Also, in series [1] (read-out: IC50), the IC50 amounted to 0.9 µM. Besides, in series [16], the inhibition was determined as 100%.

B1: Inosine-5'-monophosphate dehydrogenase (Pseudomonas aeruginosa (strain ATCC 15692 / DSM 22644 / CIP 104116 / JCM14847 / LMG 12228 / 1C / PRS 101 / PAO1)), … (protein)
chain: MLRISQEALTFDDVLLIPGYSEVLPKDVSLKTRLTRGIELNIPLVSAAMDTVTEARLAIAMAQEGGIGIIHKNMGIEQQAAEVRKVKKHETAIVRDPVTVTPSTKIIELLQMAREYGFSGFPVVEQGELVGIVTGRDLRVKPNAGDTVAAIMTPKDKLVTAREGTPLEEMKAKLYENRIEKMLVVDENFYLRGLVTFRDIEKAKTYPLASKDEQGRLRVGAAVGTGADTGERVAALVAAGVDVVVVDTAHGHSKGVIERVRWVKQTFPDVQVIGGNIATAEAAKALAEAGADAVKVGIGPGSICTTRIVAGVGVPQISAIANVAAALEGTGVPLIADGGIRFSGDLAKAMVAGAYCVMMGSMFAGTEEAPGEIELFQGRSYKSYRGMGSLGAMSGSQGSSDRYFQDASAGAEKLVPEGIEGRVPYKGALSAIVHQLMGGLRAAMGYTGSADIQQMRTQPQFVRITGAGMAESHVHDVQITKEAPNYRVG
Take B1: the Vmax in series [17] is 3.64 U/mg; in series [18] it was 3.34 U/mg; in [19] it was 2.81 U/mg; in [20], 3.14 U/mg.
